Measurements as given in patent US12421211B2, “Heterocyclic compounds” (Hoffmann-La Roche Inc., priority 2021, dated 2025).
Counter-ions that a name gives are not always drawn.

The compounds below were run on Acinetobacter baumannii ATCC17961 (assay: Antimicrobial susceptibility testing: 90% growth inhibitory concentration (IC90) determination). Settings: Acinetobacter baumannii, ATCC17961, 16 h, 90% growth inhibitory concentration, Acinetobacter baumannii ATCC17961, Iso-Sensitest broth, OD 600 nm over 16 h; read-out: ATCC 17961 IC90.
Format: cell-based
Method in brief: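 Growth inhibition derived in log phase from OD600 kinetics (every 20 minutes, 16h, 35±2° C) of ATCC17961 in Iso-Sensitest medium, inoculum ~5×10^5 CFU/ml. Compounds tested as twofold series, 10 points (e.g. 50 to 0.097 μM final); IC90 and IC50 reported.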

| IC90 [nM] | SMILES |
| --- | --- |
| 730 | Cn1nccc1-c1n[nH]cc1-c1ccc(-c2cnc(C(=O)Nc3ccc(C(=O)N4CCN(C(=O)C5CC[N+](C)(C)CC5)CC4)c(Cl)c3)n2C)c(F)c1F [Example F44, N-[3-chloro-4-[4-(1,1-dimethylpiperidin-1-ium-4-carbonyl)piperazine-1-carbonyl]phenyl]-5-[2,3-difluoro-4-[3-(2-methylpyrazol-3-yl)-1H-pyrazol-4-yl]phenyl]-1-methyl-imidazole-2-carboxamide; formate] |
| 88 | COc1ccc(NC(=O)Cn2cc(-c3ccc(-c4cnc(C(=O)Nc5ccc(C(=O)N6CCN(C(=O)C7CC[N+](C)(C)CC7)CC6)c(Cl)c5)n4C)c(F)c3F)c(C)n2)nc1 [Example G28, N-[3-chloro-4-[4-(1,1-dimethylpiperidin-1-ium-4-carbonyl)piperazine-1-carbonyl]phenyl]-5-[2,3-difluoro-4-[1-[2-[(5-methoxy-2-pyridyl)amino]-2-oxo-ethyl]-3-methyl-pyrazol-4-yl]phenyl]-1-methyl-imidazole-2-carboxamide; formate] |
| 1100 | COCCn1nc(C)c(-c2ccc(-c3cnc(C(=O)Nc4ccc(C(=O)N5CCN(C(=O)C6CC[N+](C)(C)CC6)CC5)c(Cl)c4)n3C)c(F)n2)c1C [Example F67, N-[3-chloro-4-[4-(1,1-dimethylpiperidin-1-ium-4-carbonyl)piperazine-1-carbonyl]phenyl]-5-[2-fluoro-6-[1-(2-methoxyethyl)-3,5-dimethyl-pyrazol-4-yl]-3-pyridyl]-1-methyl-imidazole-2-carboxamide; formate] |
| 210 | COCCn1cc(-c2ccc(-c3cnc(C(=O)Nc4ccc(C(=O)N5CCN(C(=O)[C@@H]6C[C@H](O)C[N+]6(C)C)CC5)c(Cl)c4)n3C)c(F)c2F)c(C)n1 [Example D10, N-[3-chloro-4-[4-[(2S,4S)-4-hydroxy-1,1-dimethyl-pyrrolidin-1-ium-2-carbonyl]piperazine-1-carbonyl]phenyl]-5-[2,3-difluoro-4-[1-(2-methoxyethyl)-3-methyl-pyrazol-4-yl]phenyl]-1-methyl-imidazole-2-carboxamide; formate] |
| 480 | Cc1nn(CCCC#N)c(C)c1-c1ccc(-c2cnc(C(=O)Nc3ccc(C(=O)N4CCN(C(=O)[C@@H]5C[C@@H](O)C[N+]5(C)C)CC4)c(Cl)c3)n2C)c(F)c1F [Example F58, N-[3-chloro-4-[4-[(2S,4R)-4-hydroxy-1,1-dimethyl-pyrrolidin-1-ium-2-carbonyl]piperazine-1-carbonyl]phenyl]-5-[4-[1-(3-cyanopropyl)-3,5-dimethyl-pyrazol-4-yl]-2,3-difluoro-phenyl]-1-methyl-imidazole-2-carboxamide; formate] |
| 84 | Cc1nn(CC(=O)Nc2ccc(F)cc2)cc1-c1ccc(-c2cnc(C(=O)Nc3ccc(C(=O)N4CCN(C(=O)C5CC[N+](C)(C)CC5)CC4)c(Cl)c3)n2C)c(F)c1F [Example G8, N-[3-chloro-4-[4-(1,1-dimethylpiperidin-1-ium-4-carbonyl)piperazine-1-carbonyl]phenyl]-5-[2,3-difluoro-4-[1-[2-(4-fluoroanilino)-2-oxo-ethyl]-3-methyl-pyrazol-4-yl]phenyl]-1-methyl-imidazole-2-carboxamide; formate] |
| 61 | COCCn1ncc(-c2ccc(-c3cnc(C(=O)Nc4ccc(C(=O)N5CCN(C(=O)C6CCNCC6)CC5)c(Cl)c4)n3C)c(F)c2F)c1C [Example E11, N-[3-chloro-4-[4-(piperidine-4-carbonyl)piperazine-1-carbonyl]phenyl]-5-[2,3-difluoro-4-[1-(2-methoxyethyl)-5-methyl-pyrazol-4-yl]phenyl]-1-methyl-imidazole-2-carboxamide; 2,2,2-trifluoroacetic acid] |
| 810 | COCCn1ncc(-c2ccc(-c3cnc(C(=O)Nc4ccc(C(=O)N5CCC(C(=O)N6CC[N+](C)(CC(=O)O)CC6)CC5)c(Cl)c4)n3C)c(F)c2F)c1C [Example B13, 2-[4-[1-[2-chloro-4-[[5-[2,3-difluoro-4-[1-(2-methoxyethyl)-5-methyl-pyrazol-4-yl]phenyl]-1-methyl-imidazole-2-carbonyl]amino]benzoyl]piperidine-4-carbonyl]-1-methyl-piperazin-1-ium-l-yl]acetic acid; 2,2,2-trifluoroacetate] |
| 150 | COCCn1cc(-c2ccc(-c3cnc(C(=O)Nc4ccc(C(=O)N5CCN(C(=O)[C@@H]6C[C@@H](O)C[N+]6(C)C)CC5)c(Cl)c4)n3C)c(F)c2F)c(C)n1 [Example D7, N-[3-chloro-4-[4-[(2S,4R)-4-hydroxy-1,1-dimethyl-pyrrolidin-1-ium-2-carbonyl]piperazine-1-carbonyl]phenyl]-5-[2,3-difluoro-4-[1-(2-methoxyethyl)-3-methyl-pyrazol-4-yl]phenyl]-1-methyl-imidazole-2-carboxamide; formate] |
| 150 | COCCn1ncc(-c2ccc(-c3cnc(C(=O)Nc4ccc(C(=O)N5CCC(NS(=O)(=O)C6CC[N+](C)(C)CC6)CC5)c(Cl)c4)n3C)c(F)c2F)c1C [Example D37, N-[3-chloro-4-[4-[(1,1-dimethylpiperidin-1-ium-4-yl)sulfonylamino]piperidine-1-carbonyl]phenyl]-5-[2,3-difluoro-4-[1-(2-methoxyethyl)-5-methyl-pyrazol-4-yl]phenyl]-1-methyl-imidazole-2-carboxamide; formate] |
| 140 | COCCn1cc(-c2ccc(-c3cnc(C(=O)Nc4ccc(C(=O)N5CCN(C(=O)C[N+]6(C)CCC(O)(CN)C6)CC5)c(Cl)c4)n3C)c(F)c2F)c(C)n1 (centres unmarked) [Example C6, N-[4-[4-[2-[3-(aminomethyl)-3-hydroxy-1-methyl-pyrrolidin-1-ium-1-yl]acetyl]piperazine-1-carbonyl]-3-chloro-phenyl]-5-[2,3-difluoro-4-[1-(2-methoxyethyl)-3-methyl-pyrazol-4-yl]phenyl]-1-methyl-imidazole-2-carboxamide; formic acid; formate] |
| 300 | COCCn1ncc(-c2ccc(-c3cnc(C(=O)Nc4ccc(C(=O)N5CCN(C(=O)N6CC[N+](CC(=O)O)(CC7CNC7)CC6)CC5)c(Cl)c4)n3C)c(F)c2F)c1C [Example B38, 2-[1-(azetidin-3-ylmethyl)-4-[4-[2-chloro-4-[[5-[2,3-difluoro-4-[1-(2-methoxyethyl)-5-methyl-pyrazol-4-yl]phenyl]-1-methyl-imidazole-2-carbonyl]amino]benzoyl]piperazine-1-carbonyl]piperazin-1-ium-1-yl]acetic acid; formate] |
| 180 | CCc1c(-c2ccc(-c3cnc(C(=O)Nc4ccc(C(=O)N5CCN(C(=O)[C@@H]6C[C@@H](O)C[N+]6(C)C)CC5)c(Cl)c4)n3C)c(F)c2F)cnn1CCOC [Example F20, N-[3-chloro-4-[4-[(2S,4R)-4-hydroxy-1,1-dimethyl-pyrrolidin-1-ium-2-carbonyl]piperazine-1-carbonyl]phenyl]-5-[4-[5-ethyl-1-(2-methoxyethyl)pyrazol-4-yl]-2,3-difluoro-phenyl]-1-methyl-imidazole-2-carboxamide; formate] |

Same assay, conditions: Acinetobacter baumannii, ATCC17961, 16 h, read-out: ATCC 17961 IC90

| SMILES | IC90 [nM] |
| --- | --- |
| COCCn1ncc(-c2ccc(-c3cnc(C(=O)Nc4ccc(C(=O)N5CCN(C(=O)C6CC[N+](C)(CC(F)F)CC6)CC5)c(Cl)c4)n3C)c(F)c2F)c1C (centres unmarked) [Example B32, N-[3-chloro-4-[4-[1-(2,2-difluoroethyl)-1-methyl-piperidin-1-ium-4-carbonyl]piperazine-1-carbonyl]phenyl]-5-[2,3-difluoro-4-[1-(2-methoxyethyl)-5-methyl-pyrazol-4-yl]phenyl]-1-methyl-imidazole-2-carboxamide; 2,2,2-trifluoroacetate] | 58 |
